Measured values from paper PMC5431190, “Investigation of cationicity and structure of pseudin-2 analogues for enhanced bacterial selectivity and anti-inflammatory activity” (Scientific Reports, 2017).
Converted amounts (≈) assume the structure as drawn. Like-named read-outs stand apart in the source and are kept apart here. Residues, ends and D or L forms follow the SMILES beside them.

Columns and labels:
[1] = tested on: S. aureus 3089(R) (MRSA 3089); assay type: cell-based, Staphylococcus aureus; settings: multidrug-resistant strain; 1% peptone media, 16 h at 37 °C
[2] = tested on: Acinetobacter baumannii KCTC 2508; assay type: cell-based
Text: (§1) Four Gram-negative bacteria species (Escherichia coli KCTC 1682, Acinetobacter baumannii KCTC 2508, Pseudomonas aeruginosa KCTC 1637 and Salmonella typhimurium KCTC 1926) and three Gram-positive bacteria species (Staphylococcus aureus KCTC 1621, Bacillus subtilis KCTC 3028 and Staphylococcus epidermidis KCTC 1917) were procured from the Korean Collection for Type Cultures (KCTC). Multi-drug-resistant Gram-negative bacteria (Salmonella typhimurium CCARM 8003 and 8007, Escherichia coli CCARM 1229 and 1238, Pseudomonas aeruginosa CCARM 2002 and 2095 and Acinetobacter baumannii CCARM 12035 and 12036) were obtained from the Culture Collection of Antibiotic-Resistant Microbes (CCARM). To determine MICs, bacteria were cultured in Luria-Bertani (LB) medium for overnight at 37 °C. An aliquot of the culture was incubated in 1% peptone media at 37 °C until mid-log phase. 100 μl of serial 2-fold diluted peptides were treated in 96 well plates and added to 100 μl of 2 × 10^6 CFU/ml bacterial suspensions in 1% peptone media for 16 h at 37 °C.

[3] = tested on: Escherichia coli CCARM 1229 (MDREC 1229); assay type: cell-based; settings: multidrug-resistant strain; 1% peptone media, 16 h at 37 °C
Text: as §1

[4] = tested on: Staphylococcus aureus KCTC 1621; assay type: cell-based
Text: as §1

[5] = tested on: Gram-positive bacteria (S. aureus, B. subtilis, S. epidermidis); assay type: cell-based
Text: as §1

[6] = tested on: Pseudomonas aeruginosa KCTC 1637; assay type: cell-based
Text: as §1

[7] = tested on: Salmonella typhimurium KCTC 1926; assay type: cell-based
Text: as §1

[8] = tested on: Staphylococcus epidermidis KCTC 1917; assay type: cell-based
Text: as §1

[9] = tested on: Escherichia coli KCTC 1682; assay type: cell-based
Text: as §1

[10] = tested on: Acinetobacter baumannii CCARM 12035 (MDRAB 12035); assay type: cell-based; settings: multidrug-resistant strain; 1% peptone media, 16 h at 37 °C
Text: as §1

[11] = tested on: Escherichia coli CCARM 1238 (MDREC 1238); assay type: cell-based; settings: multidrug-resistant strain; 1% peptone media, 16 h at 37 °C
Text: as §1

[12] = tested on: Pseudomonas aeruginosa CCARM 2095 (MDRPA 2095); assay type: cell-based; settings: multidrug-resistant strain; 1% peptone media, 16 h at 37 °C
Text: as §1

[13] = tested on: Salmonella typhimurium CCARM 8003 (MDRST 8003); assay type: cell-based; settings: multidrug-resistant strain; 1% peptone media, 16 h at 37 °C
Text: as §1

[14] = tested on: Gram-negative bacteria (E. coli, A. baumannii, P. aeruginosa, S. typhimurium); assay type: cell-based
Text: as §1

[15] = tested on: Acinetobacter baumannii CCARM 12036 (MDRAB 12036); assay type: cell-based; settings: multidrug-resistant strain; 1% peptone media, 16 h at 37 °C
Text: as §1

[16] = tested on: Pseudomonas aeruginosa CCARM 2002 (MDRPA 2002); assay type: cell-based; settings: multidrug-resistant strain; 1% peptone media, 16 h at 37 °C
Text: as §1

[17] = tested on: Bacillus subtilis KCTC 3028; assay type: cell-based
Text: as §1

[18] = tested on: Salmonella typhimurium CCARM 8007 (MDRST 8007); assay type: cell-based; settings: multidrug-resistant strain; 1% peptone media, 16 h at 37 °C
Text: as §1

[19] = tested on: human red blood cells (hRBCs); experiment: Haemolytic activity; assay type: cell-based
Experimental: Peptide-induced lysis of human red blood cells (hRBCs) was determined as follows. Fresh hRBCs were washed 2–3 times with phosphate-buffered saline (PBS) by centrifugation for 5 min at 2500 rpm at 4 °C. Peptides in PBS were incubated with 4% (v/v) hRBCs for 1 h at 37 °C. Samples were then centrifuged for 5 min at 1000 × g. The absorbance of the supernatant at 405 nm was used as a measure of haemolysis. As a positive control, 100% haemolysis was obtained by treating hRBCs with 0.1% Triton X-100.

[20] = tested on: S. aureus 3108(R) (MRSA 3108); assay type: cell-based, Staphylococcus aureus; settings: multidrug-resistant strain; 1% peptone media, 16 h at 37 °C
[21] = tested on: S. aureus 3126(R) (MRSA 3126); assay type: cell-based, Staphylococcus aureus; settings: multidrug-resistant strain; 1% peptone media, 16 h at 37 °C
[22] = target: T1, rhTLR4 (recombinant human Toll-like receptor 4) (human, UniProt O00206 24-631); experiment: BLI; BLItz system (ForteBio); rhTLR4 loaded on a Ni-NTA sensor, various amounts of peptide applied; biosensor hydrated 10 min in PBS; baseline 15 s, loading 60 s, baseline 30 s, association 60 s, dissociation 60 s; settings: both partners purified
T1 construct: Toll-like receptor 4, recombinant human (rhTLR4), bought; No catalogue number is printed; source: bought: R&D systems, Minneapolis, USA
T1 sequence (O00206 24-631): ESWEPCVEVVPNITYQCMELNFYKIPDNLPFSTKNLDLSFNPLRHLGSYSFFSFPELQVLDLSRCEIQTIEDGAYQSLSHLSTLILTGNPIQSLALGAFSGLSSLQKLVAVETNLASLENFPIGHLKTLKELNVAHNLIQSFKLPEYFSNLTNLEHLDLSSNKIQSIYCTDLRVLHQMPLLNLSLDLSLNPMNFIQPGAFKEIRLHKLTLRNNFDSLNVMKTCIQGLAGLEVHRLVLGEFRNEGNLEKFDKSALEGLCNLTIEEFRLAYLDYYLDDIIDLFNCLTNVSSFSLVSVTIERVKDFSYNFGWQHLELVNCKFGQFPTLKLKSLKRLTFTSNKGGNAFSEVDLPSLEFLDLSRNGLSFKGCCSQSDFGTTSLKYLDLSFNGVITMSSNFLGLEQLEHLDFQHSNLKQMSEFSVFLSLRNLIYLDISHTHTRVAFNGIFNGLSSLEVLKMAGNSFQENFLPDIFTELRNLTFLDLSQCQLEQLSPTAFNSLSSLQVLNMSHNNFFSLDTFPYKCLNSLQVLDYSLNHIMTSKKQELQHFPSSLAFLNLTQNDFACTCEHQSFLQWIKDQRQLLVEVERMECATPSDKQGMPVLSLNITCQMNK

Molecule	MIC, MRSA 3089 [1] [µM]	MIC, MDREC 1229 [3] [µM]	MIC, MDRAB 12035 [10] [µM]	MIC, MDREC 1238 [11] [µM]	MIC, MDRPA 2095 [12] [µM]	MIC, MDRST 8003 [13] [µM]	MIC, MDRAB 12036 [15] [µM]	MIC, MDRPA 2002 [16] [µM]	MIC, MDRST 8007 [18] [µM]	MIC, MRSA 3108 [20] [µM]	MIC, MRSA 3126 [21] [µM]	MIC, A. baumannii ([2]; KCTC 2508, 16 h) [µM]	MIC, S. aureus ([4]; KCTC 1621, 16 h) [µM]	Average MIC, Gram-positive ([5]; 16 h) [µM]	MIC, P. aeruginosa ([6]; KCTC 1637, 16 h) [µM]	MIC, S. typhimurium ([7]; KCTC 1926, 16 h) [µM]	MIC, S. epidermidis ([8]; KCTC 1917, 16 h) [µM]	MIC, E. coli ([9]; KCTC 1682, 16 h) [µM]	Average MIC, Gram-negative ([14]; 16 h) [µM]	MIC, B. subtilis ([17]; KCTC 3028, 16 h) [µM]	other results
CC[C@H](C)[C@H](NC(=O)[C@H](C)NC(=O)[C@H](CCC(=O)O)NC(=O)[C@H](Cc1c[nH]cn1)NC(=O)[C@@H](NC(=O)[C@@H]1CCCN1C(=O)[C@H](CCC(N)=O)NC(=O)[C@H](Cc1ccccc1)NC(=O)[C@@H](NC(=O)[C@H](CCCCN)NC(=O)[C@H](CCCCN)NC(=O)[C@H](CC(C)C)NC(=O)[C@H](C)NC(=O)[C@H](CC(N)=O)NC(=O)[C@H](CC(C)C)NC(=O)CN)C(C)C)[C@@H](C)CC)C(=O)N[C@@H](CCCCN)C(=O)N[C@@H](CCCCN)C(=O)N[C@H](C(=O)N[C@@H](CC(N)=O)C(=O)N[C@@H](CC(N)=O)C(=O)N[C@@H](Cc1c[nH]cn1)C(=O)N[C@H](C(=O)N[C@@H](CCC(N)=O)C(=O)O)C(C)C)[C@@H](C)CC [Ps-K18-P] (H-GLNALKKVFQPIHEAIKKINNHVQ-OH)	64 (≈ 175 µg/mL)	32 (≈ 87.7 µg/mL)	16 (≈ 43.8 µg/mL)	16 (≈ 43.8 µg/mL)	16 (≈ 43.8 µg/mL)	16 (≈ 43.8 µg/mL)	16 (≈ 43.8 µg/mL)	16 (≈ 43.8 µg/mL)	16 (≈ 43.8 µg/mL)	64 (≈ 175 µg/mL)	>64	–	–	–	–	–	–	–	–	–	MIC, A. baumannii ([2]; standard strain KCTC 2508, 1% peptone media, 16 h at 37 °C, three independent experiments in triplicate, SD 14.0%): 16 µM (≈ 43.8 µg/mL); MIC, S. aureus ([4]; standard strain KCTC 1621, 1% peptone media, 16 h at 37 °C, three independent experiments in triplicate, SD 14.0%): 64 µM (≈ 175 µg/mL); Average MIC, Gram-positive ([5]; average over the three Gram-positive standard strains): 64 µM; MIC, P. aeruginosa ([6]; standard strain KCTC 1637, 1% peptone media, 16 h at 37 °C, three independent experiments in triplicate, SD 14.0%): 8 µM (≈ 21.9 µg/mL); MIC, S. typhimurium ([7]; standard strain KCTC 1926, 1% peptone media, 16 h at 37 °C, three independent experiments in triplicate, SD 14.0%): 16 µM (≈ 43.8 µg/mL); MIC, S. epidermidis ([8]; standard strain KCTC 1917, 1% peptone media, 16 h at 37 °C, three independent experiments in triplicate, SD 14.0%): 64 µM (≈ 175 µg/mL); MIC, E. coli ([9]; standard strain KCTC 1682, 2-fold dilutions, 1% peptone media, 2 × 10^6 CFU/ml suspension, 16 h at 37 °C, three independent experiments in triplicate, SD 14.0%): 16 µM (≈ 43.8 µg/mL); Average MIC, Gram-negative ([14]; average over the four Gram-negative standard strains): 14 µM; MIC, B. subtilis ([17]; standard strain KCTC 3028, 1% peptone media, 16 h at 37 °C, three independent experiments in triplicate, SD 14.0%): 64 µM (≈ 175 µg/mL); haemolysis at 400 μM ([19]; 400 μM peptide, 4% hRBCs, PBS, 1 h at 37 °C, 100% = 0.1% Triton X-100): 0.1%; MHC (minimal peptide concentration that produces haemolysis) ([19]; 4% (v/v) hRBCs in PBS, 1 h at 37 °C, absorbance 405 nm, printed in both Gram-negative and Gram-positive sections): 400 µM
CC[C@H](C)[C@H](NC(=O)CNC(=O)[C@H](CCC(N)=O)NC(=O)[C@H](Cc1ccccc1)NC(=O)[C@@H](NC(=O)[C@H](CCCCN)NC(=O)[C@H](CCCCN)NC(=O)[C@H](CC(C)C)NC(=O)[C@H](C)NC(=O)[C@H](CC(N)=O)NC(=O)[C@H](CC(C)C)NC(=O)CN)C(C)C)C(=O)N[C@@H](Cc1c[nH]cn1)C(=O)N[C@@H](CCC(=O)O)C(=O)N[C@@H](C)C(=O)N[C@H](C(=O)N[C@@H](CCCCN)C(=O)N[C@@H](CCCCN)C(=O)N[C@H](C(=O)N[C@@H](CC(N)=O)C(=O)N[C@@H](CC(N)=O)C(=O)N[C@@H](Cc1c[nH]cn1)C(=O)N[C@H](C(=O)N[C@@H](CCC(N)=O)C(=O)O)C(C)C)[C@@H](C)CC)[C@@H](C)CC [Ps-K18] (H-GLNALKKVFQGIHEAIKKINNHVQ-OH)	16 (≈ 43.2 µg/mL)	4 (≈ 10.8 µg/mL)	4 (≈ 10.8 µg/mL)	2 (≈ 5.4 µg/mL)	2 (≈ 5.4 µg/mL)	4 (≈ 10.8 µg/mL)	4 (≈ 10.8 µg/mL)	2 (≈ 5.4 µg/mL)	4 (≈ 10.8 µg/mL)	32 (≈ 86.4 µg/mL)	16 (≈ 43.2 µg/mL)	2 (≈ 5.4 µg/mL)	16 (≈ 43.2 µg/mL)	10.67	2 (≈ 5.4 µg/mL)	4 (≈ 10.8 µg/mL)	8 (≈ 21.6 µg/mL)	2 (≈ 5.4 µg/mL)	2.5	8 (≈ 21.6 µg/mL)	MHC (minimal peptide concentration that produces haemolysis) ([19]; red cells of human, 1 h): 100 µM; haemolysis at 100 μM ([19]; red cells of human, 1 h, 100): 0.5%
CC[C@H](C)[C@H](NC(=O)[C@H](C)NC(=O)[C@H](CCC(=O)O)NC(=O)[C@H](Cc1c[nH]cn1)NC(=O)[C@@H](NC(=O)[C@@H]1CCCN1C(=O)[C@H](CCC(N)=O)NC(=O)[C@H](Cc1ccccc1)NC(=O)[C@@H](NC(=O)[C@H](CCCCN)NC(=O)[C@H](CCCCN)NC(=O)[C@H](CC(C)C)NC(=O)[C@H](C)NC(=O)[C@H](CC(N)=O)NC(=O)[C@H](CC(C)C)NC(=O)CN)C(C)C)[C@@H](C)CC)C(=O)N[C@@H](CCCCN)C(=O)N[C@@H](CC(C)C)C(=O)N[C@H](C(=O)N[C@@H](CC(N)=O)C(=O)N[C@@H](CC(N)=O)C(=O)N[C@@H](Cc1c[nH]cn1)C(=O)N[C@H](C(=O)N[C@@H](CCC(N)=O)C(=O)O)C(C)C)[C@@H](C)CC [Ps-P] (H-GLNALKKVFQPIHEAIKLINNHVQ-OH)	32 (≈ 87.2 µg/mL)	8 (≈ 21.8 µg/mL)	8 (≈ 21.8 µg/mL)	8 (≈ 21.8 µg/mL)	16 (≈ 43.6 µg/mL)	16 (≈ 43.6 µg/mL)	8 (≈ 21.8 µg/mL)	16 (≈ 43.6 µg/mL)	8 (≈ 21.8 µg/mL)	32 (≈ 87.2 µg/mL)	32 (≈ 87.2 µg/mL)	8 (≈ 21.8 µg/mL)	32 (≈ 87.2 µg/mL)	32	16 (≈ 43.6 µg/mL)	8 (≈ 21.8 µg/mL)	32 (≈ 87.2 µg/mL)	8 (≈ 21.8 µg/mL)	10	32 (≈ 87.2 µg/mL)	MHC (minimal peptide concentration that produces haemolysis) ([19]; red cells of human, 1 h): 400 µM; haemolysis at 400 μM ([19]; red cells of human, 1 h, 400): 0.5%
GLNALKKVFQGIHEAIKKINNHVQ (source: synthetic peptide (solid-phase, Fmoc; reversed-phase HPLC, purity >95%)) [Ps-K18]	–	–	–	–	–	–	–	–	–	–	–	–	–	–	–	–	–	–	–	–	Kd [22]: 1.5 µM
GLNALKKVFQGIHKAIKKINNHVQ (source: synthetic peptide (solid-phase, Fmoc; reversed-phase HPLC, purity >95%)) [Ps-K14-K18]	–	–	–	–	–	–	–	–	–	–	–	–	–	–	–	–	–	–	–	–	Kd [22]: 6.9 µM
